Measured values reported in article PMC5775429, “LY2087101 and dFBr share transmembrane binding sites in the (α4)3(β2)2 Nicotinic Acetylcholine Receptor” (Scientific Reports, 2018).
Where “and” joins values, the source holds several entries; their conditions need not be identical. Equal entries are not always repeated. Where two headings read alike, the source gives them in different places. Marks after values point to notes of the source that are not given here.

Assays:
(α4Q150T)3(β2)2 nAChR = (α4Q150T)3(β2)2 nAChR (Homo sapiens, UniProt P43681, Q150T); test: Two-electrode voltage-clamp of ACh-induced currents in Xenopus oocytes; assay type: cell-based; conditions: 10 µM ACh + 1 µM LY2087101 vs 10 µM ACh alone
Sequence of (α4Q150T)3(β2)2 nAChR (P43681 29-627 Q150T limits assumed): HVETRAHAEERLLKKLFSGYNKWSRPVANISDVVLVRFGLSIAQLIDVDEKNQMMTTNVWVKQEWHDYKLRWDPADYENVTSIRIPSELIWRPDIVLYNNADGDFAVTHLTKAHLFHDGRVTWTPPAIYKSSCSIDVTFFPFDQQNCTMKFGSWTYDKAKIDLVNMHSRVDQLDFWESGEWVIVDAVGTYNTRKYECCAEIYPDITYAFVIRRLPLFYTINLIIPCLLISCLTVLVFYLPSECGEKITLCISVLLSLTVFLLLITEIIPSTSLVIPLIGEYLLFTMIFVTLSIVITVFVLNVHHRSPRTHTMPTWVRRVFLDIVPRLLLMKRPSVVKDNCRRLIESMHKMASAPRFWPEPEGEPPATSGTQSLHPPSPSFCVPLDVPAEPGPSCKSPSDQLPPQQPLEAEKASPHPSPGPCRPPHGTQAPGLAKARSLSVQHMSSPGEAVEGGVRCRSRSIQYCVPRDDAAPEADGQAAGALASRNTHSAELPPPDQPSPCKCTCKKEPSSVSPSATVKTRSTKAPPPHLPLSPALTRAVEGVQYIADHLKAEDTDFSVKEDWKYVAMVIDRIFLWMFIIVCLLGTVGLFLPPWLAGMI
Sequence of (α4Q150T)3(β2)2 nAChR (P17787 26-502 partner): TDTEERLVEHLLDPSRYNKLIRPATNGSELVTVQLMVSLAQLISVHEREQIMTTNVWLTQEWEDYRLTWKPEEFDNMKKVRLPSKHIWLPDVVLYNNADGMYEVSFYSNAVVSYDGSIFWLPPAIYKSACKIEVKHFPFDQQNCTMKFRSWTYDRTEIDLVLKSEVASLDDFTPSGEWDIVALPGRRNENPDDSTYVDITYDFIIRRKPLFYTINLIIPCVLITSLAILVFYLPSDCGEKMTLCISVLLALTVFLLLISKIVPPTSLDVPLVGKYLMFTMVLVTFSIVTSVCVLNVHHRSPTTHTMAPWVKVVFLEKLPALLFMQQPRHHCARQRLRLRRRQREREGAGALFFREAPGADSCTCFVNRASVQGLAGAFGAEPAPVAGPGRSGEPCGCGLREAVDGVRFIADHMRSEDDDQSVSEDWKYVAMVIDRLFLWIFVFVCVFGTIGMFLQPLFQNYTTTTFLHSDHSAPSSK
Procedure: (§1) For amino acid substitutions within the α4 nAChR subunit, point mutations were introduced into pSP64ployA plasmid with cDNA encoding for human α4 nAChR subunit with mutagenic primer pairs using the Quick Change II Site-Directed Mutagenesis Kit (Agilent Technologies) then confirmed by DNA sequencing (GENEWIZ, LLC, South Plainfield, NJ). cRNA transcripts suitable for oocyte expression were prepared in vitro from linearized plasmids [α3 (BamH1), α4 (AseI), β2 (PvuII), β4 (XhoI)] using mMESSAGE mMACHINE high yield capped RNA transcription kits (Ambion) and purified on NucAway Spin column (Invitrogen). cRNA concentration was determined by spectroscopy (Concentration (ug/ul) = Abs260 * 40), aliquoted and stored at −80 °C until used.
(§2) Ovarian lobules were surgically harvested from oocytes-positive female Xenopus laevis (NASCO, Fort Atkinson, WI) according to an animal use protocol approved by the Texas A&M Health Sciences Center Institutional Animals Care and Use Committee. The Texas A&M Health Sciences Center Research Facility is registered as an animal research facility with the United States Department of Agriculture and is fully accredited by the American Association for Accreditation of Laboratory Animal Care (AAALAC). For oocytes defolliculation, ovarian lobes were treated with 3 mg/ml collagenase type 2 (Worthington Biomedical, Lakewood, NJ) in Ca + 2-free buffer (85 mM NaCl, 2.5 mM KCl, 1 mM MgCl2, 5 mM HEPES, pH 7.6). Collagenase treatment was allowed to proceed for 3 hours at room temperature with gentle shaking then oocytes were washed several times with buffer to remove collagenase then with ND96-gentamicine buffer. Healthy Stage V and VI oocytes were visually selected and maintained at 18 °C in modified ND96-gentamicine buffer (96 mM NaCl, 2 mM KCl, 1.8 mM CaCl2, 1 mM MgCl2, 5 mM HEPES, 50 µg/ml gentamicin, pH 7.6). Oocytes were injected with 50–100 ng of the desired nAChR subunits cRNA mix at ratios of 8α:1β or 1α:8β to express nAChRs with subunit stoichiometries of 3α:2β (low agonist sensitivity) or 2α:3β (high agonist sensitivity), respectively.
(§3) Two-electrode voltage clamp recording of ACh-induced responses of Xenopus oocytes were performed 24–72 h following injection of nAChR subunit cRNA mix to ensure adequate nAChRs expression. Xenopus oocytes were placed in a custom-made recording chamber that is connected to eight channels automated perfusion system (Warner Instruments) and voltage-clamped at −50 mV using Oocyte Clamp OC-725B (Warner Instruments). Oocytes were continuously perfused with recording buffer (100 mM NaCl, 2 mM KCl, 1 mM CaCl2, 0.8 mM MgCl2, 1 mM EGTA, 10 mM Hepes, pH 7.5) except during periods of drug applications. […] Currents were digitized using Digidata 1550 A (Axon Instruments) and peak currents were quantified using pCLAMP 10 (Axon Instruments) then normalized and analyzed using Excels 2010 (Microsoft corporation) and SigmaPlot 11.0 (Systat Software).

(α4R148E)3(β2)2 nAChR = (α4R148E)3(β2)2 nAChR (Homo sapiens, UniProt P43681, R148E); test: as above; assay type: cell-based; conditions: 10 µM ACh + 1 µM LY2087101 vs 10 µM ACh alone
Sequence of (α4R148E)3(β2)2 nAChR (P43681 29-627 R148E limits assumed): as the sequence (P43681 29-627 Q150T limits assumed) above, with R120E, T122Q counted along it
Sequence of (α4R148E)3(β2)2 nAChR (P17787 26-502 partner): as the sequence (P17787 26-502 partner) above
Procedure: as §1, §2, §3

(α4R65H)3(β2)2 nAChR = (α4R65H)3(β2)2 nAChR (Homo sapiens, UniProt P43681, R65H); test: as above; assay type: cell-based; conditions: 10 µM ACh + 1 µM LY2087101 vs 10 µM ACh alone
Sequence of (α4R65H)3(β2)2 nAChR (P43681 29-627 R65H limits assumed): as the sequence (P43681 29-627 Q150T limits assumed) above, with R37H, T122Q counted along it
Sequence of (α4R65H)3(β2)2 nAChR (P17787 26-502 partner): as the sequence (P17787 26-502 partner) above
Procedure: as §1, §2, §3

(α4H142L)3(β2)2 nAChR = (α4H142L)3(β2)2 nAChR (Homo sapiens, UniProt P43681, H142L); test: as above; assay type: cell-based; conditions: 10 µM ACh + 1 µM LY2087101 vs 10 µM ACh alone
Sequence of (α4H142L)3(β2)2 nAChR (P43681 29-627 H142L limits assumed): as the sequence (P43681 29-627 Q150T limits assumed) above, with H114L, T122Q counted along it
Sequence of (α4H142L)3(β2)2 nAChR (P17787 26-502 partner): as the sequence (P17787 26-502 partner) above
Procedure: as §1, §2, §3

(α4T152I)3(β2)2 nAChR [1] = biological target: T1, (α4T152I)3(β2)2 nAChR (Homo sapiens, UniProt P43681, T152I); test: as above; assay type: cell-based; conditions: 10 µM ACh + 1 µM LY2087101 vs 10 µM ACh alone
T1 sequence (P43681 29-627 T152I limits assumed): as the sequence (P43681 29-627 Q150T limits assumed) above, with T122Q, T124I counted along it
T1 sequence (P17787 26-502 partner): as the sequence (P17787 26-502 partner) above
Procedure: as §1, §2, §3

(α4)2(β2)3 nAChR = biological target: T2, (α4)2(β2)3 nAChR (Homo sapiens, UniProt P17787+P43681); test: as above; assay type: cell-based
T2 construct: expressed in transfected cells; host or cells: Xenopus laevis oocytes injected with cRNA
T2 sequence (P43681 29-627 limits assumed): as the sequence (P43681 29-627 Q150T limits assumed) above, with T122Q counted along it
T2 sequence (P17787 26-502): as the sequence (P17787 26-502 partner) above
Procedure: To begin to characterize LY2087101 interaction with the heteropentameric α4β2 nAChRs, we examined the selectivity of LY2087101 for the two α4β2 nAChR isoforms; high-agonist sensitivity (α4)2(β2)3 and low-agonist sensitivity (α4)3(β2)2 nAChRs. Xenopus oocytes were injected with α4 and β2 subunits RNAs at ratios 8:1 and 1:8 to favor expression of (α4)3(β2)2 and (α4)2(β2)3 nAChRs, respectively.
as §2
(§4) Oocytes were continuously perfused with recording buffer (100 mM NaCl, 2 mM KCl, 1 mM CaCl2, 0.8 mM MgCl2, 1 mM EGTA, 10 mM Hepes, pH 7.5) except during periods of drug applications.

[2] = test system: non-induced compulsive-like mouse model; parameters: method as in PMID 23712602, PMID 28446611, PMID 28809075, PMID 28105008; conditions: cited from earlier work
(α4L63I)3(β2)2 nAChR = (α4L63I)3(β2)2 nAChR (Homo sapiens, UniProt P43681, L63I); parameters: method as in PMID 28446611; conditions: 10 µM ACh + 1 µM dFBr vs 10 µM ACh alone; data reported previously ref 29; cited from earlier work
Sequence of (α4L63I)3(β2)2 nAChR (P43681 29-627 L63I limits assumed): as the sequence (P43681 29-627 Q150T limits assumed) above, with L35I, T122Q counted along it
Sequence of (α4L63I)3(β2)2 nAChR (P17787 26-502 partner): as the sequence (P17787 26-502 partner) above

(α4T152I)3(β2)2 nAChR [3] = biological target: T1, (α4T152I)3(β2)2 nAChR; parameters: method as in PMID 28446611; conditions: 10 µM ACh + 1 µM dFBr vs 10 µM ACh alone; data reported previously ref 29; cited from earlier work
α3β4 nAChR = biological target: T3, α3β4 nAChR (Homo sapiens, UniProt P30926+P32297); test: Two-electrode voltage-clamp of ACh-induced currents in Xenopus oocytes; assay type: cell-based; conditions: 1 μM PAM
T3 construct: expressed in transfected cells; host or cells: Xenopus laevis oocytes injected with cRNA
T3 sequence (P32297 32-505): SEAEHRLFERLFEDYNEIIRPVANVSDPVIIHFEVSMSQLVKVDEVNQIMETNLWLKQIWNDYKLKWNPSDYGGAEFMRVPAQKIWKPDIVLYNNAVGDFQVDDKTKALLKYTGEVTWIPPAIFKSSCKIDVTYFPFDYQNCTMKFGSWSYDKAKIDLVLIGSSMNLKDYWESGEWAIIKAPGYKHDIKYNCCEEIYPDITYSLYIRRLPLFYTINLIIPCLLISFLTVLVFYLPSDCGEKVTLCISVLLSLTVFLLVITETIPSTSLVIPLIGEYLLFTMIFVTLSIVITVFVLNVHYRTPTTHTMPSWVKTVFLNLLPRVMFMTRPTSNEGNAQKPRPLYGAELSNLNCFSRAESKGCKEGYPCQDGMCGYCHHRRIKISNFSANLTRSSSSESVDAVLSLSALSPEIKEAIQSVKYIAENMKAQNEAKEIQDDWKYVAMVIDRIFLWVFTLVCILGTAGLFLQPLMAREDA
T3 sequence (P30926 22-498): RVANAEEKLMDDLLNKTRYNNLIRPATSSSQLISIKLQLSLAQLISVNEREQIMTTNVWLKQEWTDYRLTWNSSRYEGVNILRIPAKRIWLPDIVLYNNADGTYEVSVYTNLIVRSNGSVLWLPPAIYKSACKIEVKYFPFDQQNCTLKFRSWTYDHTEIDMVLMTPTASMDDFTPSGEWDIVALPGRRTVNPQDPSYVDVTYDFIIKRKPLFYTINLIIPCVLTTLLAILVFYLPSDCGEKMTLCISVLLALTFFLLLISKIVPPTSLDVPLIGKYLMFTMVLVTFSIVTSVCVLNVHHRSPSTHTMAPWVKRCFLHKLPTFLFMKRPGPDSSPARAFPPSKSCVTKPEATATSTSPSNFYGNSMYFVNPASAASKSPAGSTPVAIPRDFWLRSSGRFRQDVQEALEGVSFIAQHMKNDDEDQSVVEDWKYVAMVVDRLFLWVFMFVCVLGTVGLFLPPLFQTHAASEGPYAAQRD
Procedure: Next, Xenopus oocytes were injected with RNA mixes of […], α3:β4, […], or α4:β4 at ratios of 8:1, 1:1, or 1:8 to express nAChRs with different subunit composition and with various α:β ratios.
as §2, §4

(α4G67E)3(β2)2 nAChR = (α4G67E)3(β2)2 nAChR (Homo sapiens, UniProt P43681, G67E); parameters: method as in PMID 28446611; conditions: 10 µM ACh + 1 µM dFBr vs 10 µM ACh alone; data reported previously ref 29; cited from earlier work
Sequence of (α4G67E)3(β2)2 nAChR (P43681 29-627 G67E limits assumed): as the sequence (P43681 29-627 Q150T limits assumed) above, with G39E, T122Q counted along it
Sequence of (α4G67E)3(β2)2 nAChR (P17787 26-502 partner): as the sequence (P17787 26-502 partner) above

α3β2 nAChR = biological target: T4, α3β2 nAChR (Homo sapiens, UniProt P17787+P32297); test: Two-electrode voltage-clamp of ACh-induced currents in Xenopus oocytes; assay type: cell-based; conditions: 1 μM PAM
T4 construct: expressed in transfected cells; host or cells: Xenopus laevis oocytes injected with cRNA
T4 sequence (P32297 32-505): as the sequence (P32297 32-505) above
T4 sequence (P17787 26-502): as the sequence (P17787 26-502 partner) above

(α4H94N)3(β2)2 nAChR = (α4H94N)3(β2)2 nAChR (Homo sapiens, UniProt P43681, H94N); parameters: method as in PMID 28446611; conditions: 10 µM ACh + 1 µM dFBr vs 10 µM ACh alone; data reported previously ref 29; cited from earlier work
Sequence of (α4H94N)3(β2)2 nAChR (P43681 29-627 H94N limits assumed): as the sequence (P43681 29-627 Q150T limits assumed) above, with H66N, T122Q counted along it
Sequence of (α4H94N)3(β2)2 nAChR (P17787 26-502 partner): as the sequence (P17787 26-502 partner) above

| SMILES | R, potentiation ratio (PR) ((α4Q150T)3(β2)2 nAChR) | R, potentiation ratio (PR) ((α4R148E)3(β2)2 nAChR) | R, potentiation ratio (PR) ((α4R65H)3(β2)2 nAChR) | R, potentiation ratio (PR) ((α4H142L)3(β2)2 nAChR) | R, potentiation ratio (PR) ((α4T152I)3(β2)2 nAChR [1]) | ACh Imax in the presence of 1 µM LY2087101 ((α4)2(β2)3 nAChR; ACh concentration-response curve, normalized to 1 mM ACh alone) | EC50 ((α4)2(β2)3 nAChR; co-applied with 10 µM ACh, HS WT, read-out: LY2087101 potentiation EC50) [nM] | compulsive-like behavior [2] | R, potentiation ratio (PR) ((α4L63I)3(β2)2 nAChR) | R, potentiation ratio (PR) ((α4T152I)3(β2)2 nAChR [3]) | potentiation of ACh responses (α3β4 nAChR) | R, potentiation ratio (PR) ((α4G67E)3(β2)2 nAChR) | potentiation of ACh responses (α3β2 nAChR) | R, potentiation ratio (PR) ((α4H94N)3(β2)2 nAChR) |
| --- | --- | --- | --- | --- | --- | --- | --- | --- | --- | --- | --- | --- | --- | --- |
| Cc1nc(Nc2ccc(F)cc2)sc1C(=O)c1ccsc1 [LY2087101, [2-[(4-Fluorophenyl)amino]-4-methyl-5-thiazolyl]-3-thienylmethanone] | 4.3 ± 0.2 | 11.1 ± 1.2 | 7.4 ± 1.3 | 8.7 ± 0.5 | 4.3 ± 1.3 | 189 ± 2% and ~190% | 1900 ± 40 |  |  |  |  |  |  |  |
| C=CC(C)(C)c1[nH]c2cc(Br)ccc2c1CCNC [dFBr] |  |  |  |  |  |  |  | attenuate compulsive-like behavior | 3.5 ± 0.3^a | 2.6 ± 0.4^a | did not potentiate | 4.1 ± 0.2^a | did not potentiate | 5.8 ± 0.5^a |
